Reference: the supplement of paper PMC9663587

How the values were obtained:
[1] = compound: T1, CC(=O)c1c(C)c2cnc(Nc3ccc(N4CCN(CCOCCOCCOCCNC(=O)COc5cccc6c5C(=O)N(C5CCC(=O)NC5=O)C6=O)CC4)cn3)nc2n(C2CCCC2)c1=O [BSJ-03-123]
[2] = compound: CC[C@@H]1C(=O)N(C)c2cnc(Nc3ccc(C(=O)N[C@H]4CC[C@H](N5CCN(CC6CC6)CC5)CC4)cc3OC)nc2N1C(C)C [Volasertib/BI6727]
[3] = compound: Cc1cc(Nc2ncc(Cl)c(Nc3ccccc3S(=O)(=O)C(C)C)n2)c(OC(C)C)cc1C1CCNCC1 [Ceritinib/LDK378]
[4] = compound: CC(C)n1nc(-c2ccc3oc(N)nc3c2)c2c(N)ncnc21 [INK128/MLN0128]
[5] = compound: T2, CCOc1cc2ncc(C#N)c(Nc3ccc(OCc4ccccn4)c(Cl)c3)c2cc1NC(=O)/C=C/CN(C)C [Neratinib/HKI272]
[6] = compound: T3, CN(C)C(=O)c1cc2cnc(Nc3ccc(N4CCNCC4)cn3)nc2n1C1CCCC1 [LEE011/Ribociclib]
[7] = compound: O=C1NC(=O)[C@@H](c2cn3c4c(cccc24)CCC3)[C@@H]1c1c[nH]c2ccccc12 [Tivantinib/ARQ197]
[8] = compound: CC(=O)O[C@H]1C(=O)[C@@]2(C)[C@H]([C@H](OC(=O)c3ccccc3)[C@]3(O)C[C@H](OC(=O)[C@H](O)[C@@H](NC(=O)c4ccccc4)c4ccccc4)C(C)=C1C3(C)C)[C@]1(OC(C)=O)CO[C@@H]1C[C@@H]2O [Paclitaxel]
[9] = compound: CN(C)CC[C@H](CSc1ccccc1)Nc1ccc(S(=O)(=O)NC(=O)c2ccc(N3CCN(Cc4ccccc4-c4ccc(Cl)cc4)CC3)cc2)cc1[N+](=O)[O-] [ABT-737]
[10] = compound: Cc1nc(-c2cn3c(n2)-c2ccc(-c4cnn(C(C)(C)C(N)=O)c4)cc2OCC3)n(C(C)C)n1 [Taselisib/GDC0032]
[11] = compound: CS(=O)(=O)N1CCN(Cc2cc3nc(-c4cccc5[nH]ncc45)nc(N4CCOCC4)c3s2)CC1 [Pictilisib/GDC0941]
[12] = compound: CN(C)C/C=C/C(=O)Nc1ccc(C(=O)N2CCC[C@@H](Nc3ncc(Cl)c(-c4c[nH]c5ccccc45)n3)C2)cc1 [THZ531]
[13] = compound: CCN1CCN(Cc2ccc(Nc3ncc(F)c(-c4cc(F)c5nc(C)n(C(C)C)c5c4)n3)nc2)CC1
[14] = compound: T1, BSJ-03-123; assay: GR value, 72 h; higher = faster growth (1 = untreated, <0 = killing);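 note: breast cancer and non-malignant breast epithelial lines, nine half-log doses, viable cells counted by Hoechst and LIVE/DEAD dye imaging versus time-zero plates and DMSO controls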
[15] = compound: C=CC(=O)Nc1ccc(C(=O)Nc2[nH]nc3c2CN(C(=O)N[C@H](CN(C)C)c2ccccc2)C3(C)C)cc1 [YKL-5-124]; assay: as above
[16] = compound: T2, Neratinib/HKI272; assay: as above
[17] = compound: CCc1cnn2c(NCc3ccc[n+]([O-])c3)cc(N3CCCC[C@H]3CCO)nc12; assay: as above
[18] = compound: T3, LEE011/Ribociclib; assay: as above
[19] = compound: CCN1CCN(Cc2ccc(Nc3ncc(F)c(-c4cc(F)c5nc(C)n(C(C)C)c5c4)n3)nc2)CC1; assay: as above
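Throughout, for GR50, 72 h: breast cancer and non-malignant breast epithelial cell lines, Deep Dye Drop or Dye Drop imaging, nine half-log doses, GR normalized to time-zero plates and DMSO-only controls.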

HCC202
GR50, 72 h [1]: 3.36 µM | GR50, 72 h [2]: 0.015 µM | GR50, 72 h [3]: 4.75 µM | GR50, 72 h [4]: 0.0112 µM | GR50, 72 h [5]: 0.0317 µM | GR50, 72 h [6]: > 10 µM | GR50, 72 h [7]: 0.816 µM | GR50, 72 h [8]: 0.00379 µM | GR50, 72 h [9]: > 10 µM | GR50, 72 h [10]: 0.00366 µM | GR50, 72 h [11]: 0.208 µM | GR50, 72 h [12]: 0.0588 µM | GR50, 72 h [13]: 2.43 µM | GR value ([14]; 0.001 µM): 0.979 GR | GR value ([14]; 0.003162 µM): 0.927 GR | GR value ([14]; 0.01 µM): 0.777 GR | GR value ([14]; 0.03162 µM): 0.873 GR | GR value ([14]; 0.1 µM): 0.889 GR | GR value ([14]; 0.3162 µM): 0.829 GR | GR value ([14]; 1 µM): 0.666 GR | GR value ([14]; 3.162 µM): 0.768 GR | GR value ([14]; 10 µM): 0.0981 GR | GR value ([15]; 0.001 µM): 0.459 GR | GR value ([15]; 0.003162 µM): 0.432 GR | GR value ([15]; 0.01 µM): 0.377 GR | GR value ([15]; 0.03162 µM): 0.409 GR | GR value ([15]; 0.1 µM): 0.291 GR | GR value ([15]; 0.3162 µM): 0.228 GR | GR value ([15]; 1 µM): 0.337 GR | GR value ([15]; 3.162 µM): 0.288 GR | GR value ([15]; 10 µM): -0.165 GR | GR value ([16]; 0.0003162 µM): 1.05 GR | GR value ([16]; 0.001 µM): 0.953 GR | GR value ([16]; 0.003162 µM): 0.901 GR | GR value ([16]; 0.01 µM): 0.709 GR | GR value ([16]; 0.03162 µM): 0.491 GR | GR value ([16]; 0.1 µM): 0.325 GR | GR value ([16]; 0.3162 µM): 0.214 GR | GR value ([16]; 1 µM): 0.194 GR | GR value ([16]; 3.162 µM): 0.0934 GR | GR value ([17]; 0.0001 µM): 0.96 GR | GR value ([17]; 0.0003162 µM): 0.998 GR | GR value ([17]; 0.001 µM): 1.06 GR | GR value ([17]; 0.003162 µM): 1.03 GR | GR value ([17]; 0.01 µM): 0.784 GR | GR value ([17]; 0.03162 µM): 0.0982 GR | GR value ([17]; 0.1 µM): 0.14 GR | GR value ([17]; 0.3162 µM): 0.0849 GR | GR value ([17]; 1 µM): 0.0949 GR | GR value ([18]; 0.001 µM): 0.881 GR | GR value ([18]; 0.003162 µM): 1.03 GR | GR value ([18]; 0.01 µM): 1.03 GR | GR value ([18]; 0.03162 µM): 0.891 GR | GR value ([18]; 0.1 µM): 1.03 GR | GR value ([18]; 0.3162 µM): 0.883 GR | GR value ([18]; 1 µM): 0.833 GR | GR value ([18]; 3.162 µM): 0.813 GR | GR value ([18]; 10 µM): 0.829 GR | GR value ([19]; 0.001 µM): 0.929 GR | GR value ([19]; 0.003162 µM): 0.906 GR | GR value ([19]; 0.01 µM): 0.876 GR | GR value ([19]; 0.03162 µM): 0.855 GR | GR value ([19]; 0.1 µM): 0.809 GR | GR value ([19]; 0.3162 µM): 0.627 GR | GR value ([19]; 1 µM): 0.642 GR | GR value ([19]; 3.162 µM): 0.545 GR | GR value ([19]; 10 µM): 0.309 GR
